“Also recorded” adds a separate entry of the source.
Legend:
[1] = system: A549/ATCC (Non-small cell lung cancer); assay: NCI-60 single-dose anticancer screen; type: cell-based, human; details: 10 µM single dose
Protocol: (§1) Six compounds were selected by the NCI, according to NCI’s DTP selection guidelines, for evaluation of their anticancer activity at a single-dose of 10 µM against 60 human tumours cell lines.
(§2) In vitro cytotoxicity was performed in NCI according to reported method.

[2] = system: ACHN (Renal cancer); assay: NCI-60 single-dose anticancer screen; type: cell-based, human; details: 10 µM single dose
Protocol: as §1, §2

[3] = system: HL-60(TB) (Leukaemia); assay: NCI-60 single-dose anticancer screen; type: cell-based, human; details: 10 µM single dose; for inhibition at 10 µM: Homo sapiens, read-out: cell growth inhibition
Protocol: as §1, §2

[4] = system: HS 578T (Breast cancer); assay: NCI-60 single-dose anticancer screen; type: cell-based, human; details: 10 µM single dose
Protocol: as §1, §2

[5] = system: K-562 (Leukaemia); assay: NCI-60 single-dose anticancer screen; type: cell-based, human; details: for cell growth promotion: 10 µM single dose; for inhibition at 10 µM: Homo sapiens, K562, 10 µM single dose, read-out: cell growth inhibition
Protocol: as §1, §2

[6] = system: KM12 (Colon cancer); assay: NCI-60 single-dose anticancer screen; type: cell-based, human; details: 10 µM single dose
Protocol: as §1, §2

[7] = system: M14 (Melanoma); assay: NCI-60 single-dose anticancer screen; type: cell-based, human; details: 10 µM single dose
Protocol: as §1, §2

[8] = system: MCF7 (Breast cancer); assay: NCI-60 single-dose anticancer screen; type: cell-based, human; details: 10 µM single dose; for inhibition at 10 µM: Homo sapiens, read-out: cell growth inhibition
Protocol: as §1, §2

[9] = system: MDA-MB-231/ATCC (Breast cancer); assay: NCI-60 single-dose anticancer screen; type: cell-based, human; details: 10 µM single dose
Protocol: as §1, §2

[10] = system: NCI-H23 (Non-small cell lung cancer); assay: NCI-60 single-dose anticancer screen; type: cell-based, human; details: 10 µM single dose
Protocol: as §1, §2

[11] = system: NCI-H322M (Non-small cell lung cancer); assay: NCI-60 single-dose anticancer screen; type: cell-based, human; details: 10 µM single dose
Protocol: as §1, §2

[12] = system: SF-539 (CNS cancer); assay: NCI-60 single-dose anticancer screen; type: cell-based, human; details: 10 µM single dose
Protocol: as §1, §2

[13] = system: SK-MEL-5 (Melanoma); assay: NCI-60 single-dose anticancer screen; type: cell-based, human; details: 10 µM single dose
Protocol: as §1, §2

[14] = molecular target: T1, human VEGFR-2 (Homo sapiens, UniProt P35968); assay: In vitro VEGFR-2 inhibitory assay (colorimetric human VEGFR-2 ELISA, HTScan VEGF Receptor 2 Kinase Assay Kit); type: biochemical; details: VEGFR-2 inhibition
T1 construct: It includes active VEGFR-2 kinase; purchased HTScan VEGF Receptor 2 Kinase Assay Kit
T1 sequence (P35968 20-1356): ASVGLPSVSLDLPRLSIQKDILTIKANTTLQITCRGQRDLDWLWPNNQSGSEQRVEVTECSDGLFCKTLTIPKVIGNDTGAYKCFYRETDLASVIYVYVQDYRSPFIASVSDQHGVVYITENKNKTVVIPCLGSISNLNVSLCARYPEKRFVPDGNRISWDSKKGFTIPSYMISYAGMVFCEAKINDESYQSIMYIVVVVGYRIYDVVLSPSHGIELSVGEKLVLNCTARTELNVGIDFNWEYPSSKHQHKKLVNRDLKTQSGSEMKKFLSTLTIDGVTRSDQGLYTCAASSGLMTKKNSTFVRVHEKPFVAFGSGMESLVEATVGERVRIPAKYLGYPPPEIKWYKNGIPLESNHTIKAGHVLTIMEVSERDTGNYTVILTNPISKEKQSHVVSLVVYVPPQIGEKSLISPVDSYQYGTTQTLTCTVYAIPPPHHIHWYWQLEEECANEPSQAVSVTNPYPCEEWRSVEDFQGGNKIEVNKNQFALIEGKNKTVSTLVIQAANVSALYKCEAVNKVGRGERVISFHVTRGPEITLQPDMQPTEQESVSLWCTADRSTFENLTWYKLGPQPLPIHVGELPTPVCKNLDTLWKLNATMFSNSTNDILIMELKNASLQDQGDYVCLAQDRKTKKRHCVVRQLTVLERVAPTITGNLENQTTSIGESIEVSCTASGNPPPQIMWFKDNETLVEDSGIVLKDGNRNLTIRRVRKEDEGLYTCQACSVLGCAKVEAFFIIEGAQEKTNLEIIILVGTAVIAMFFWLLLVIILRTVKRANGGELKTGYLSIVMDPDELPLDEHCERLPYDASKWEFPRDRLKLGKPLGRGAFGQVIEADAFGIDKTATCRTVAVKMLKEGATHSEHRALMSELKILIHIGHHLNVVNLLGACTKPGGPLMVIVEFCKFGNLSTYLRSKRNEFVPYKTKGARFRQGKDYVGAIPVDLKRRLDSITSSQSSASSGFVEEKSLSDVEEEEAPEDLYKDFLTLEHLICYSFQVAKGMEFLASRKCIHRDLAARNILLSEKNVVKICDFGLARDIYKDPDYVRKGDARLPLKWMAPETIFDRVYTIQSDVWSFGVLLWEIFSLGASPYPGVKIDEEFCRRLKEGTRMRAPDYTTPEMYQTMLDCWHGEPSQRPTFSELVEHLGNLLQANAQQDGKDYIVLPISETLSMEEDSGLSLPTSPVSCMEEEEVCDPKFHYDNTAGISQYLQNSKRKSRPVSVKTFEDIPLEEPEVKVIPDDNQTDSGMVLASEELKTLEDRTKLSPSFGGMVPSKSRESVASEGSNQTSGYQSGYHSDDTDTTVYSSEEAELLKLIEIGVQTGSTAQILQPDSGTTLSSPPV
Protocol: VEGFR is considered as an important target for the development of potential anti-cancer candidates.
On a 96-well plate, a particular VEGFR-2 antibody was seeded and 100 µL of the normal solution or compound tested was applied, incubated at room temperature for 2.5 h and washed.
Then, 100 µL of the prepared biotin antibody was added, incubated for an additional 1 h at room temperature and washed. Following, 100 µL of streptavidin solution was added at room temperature, incubated for 45 min and then, 100 µL of TMB substrate solution was applied and incubated at room temperature for 30 min. Finally, 50 µL stop solution was added and the absorption was measured at 450 nm instantly. The standard curve, the X-axis concentrations, and the Y-axis absorbance were drawn.

[15] = system: HCT-116 cells; assay: Cell cycle analysis by DNA flow cytometry; type: cell-based, human; details: 10 µM; for %Pre-G1 / %G2/M / %S / %G0/G1: 24 h; for %Pre-G1: control 1.97; for %G2/M: control 15.44; for %S: control 30.18; for %G0/G1: control 54.38
Protocol: Flow cytometric analysis is considered a valuable method for determining and analysing the cell cycle parameters. […] The effect on the cell cycle distribution was assessed by a DNA flow cytometry analysis and the cell cycle parameters were compared to untreated control cells in HCT-116 cells which had been incubated with 10 µM of Vd and Ve compounds and the results are shown in Table 3 and Figure 3.
HCT-116 cells were seeded at concentrations of 1 × 10^5 cells per well in a six-well plate, then incubated for 24 h. The cells were treated for 24 h with vehicles (0.1% DMSO) or 10 µM of Vd or Ve compounds. Using ice-cold, 70% ethanol at 4 °C, cells were harvested and fixed for 12 h after that. Ethanol removal and cold PBS washing of the cells were done. Then incubated in 0.5 mL of PBS containing 1 mg/mL Ranse for 30 min at 37 °C. In the dark, the cells were stained with PI for 30 min. Flow cytometer was then used to detect contents of DNA[62].

[16] = system: HCT-116 cells; assay: Annexin V-FITC/PI apoptosis assay; details: for Apoptosis Early: control 0.51; for Necrosis: control 1.21; for Apoptosis Total: control 1.97

SMILES	cell growth promotion [1]	cell growth promotion [2]	cell growth promotion [3]	inhibition at 10 µM [3]	cell growth promotion [4]	cell growth promotion [5]	inhibition at 10 µM [5]	cell growth promotion [6]	cell growth promotion [7]	cell growth promotion [8]	inhibition at 10 µM [8]	cell growth promotion [9]	cell growth promotion [10]	cell growth promotion [11]	cell growth promotion [12]	cell growth promotion [13]	IC50 [14]	melting point	Comment (cell cycle arrest phase) [15]	%Pre-G1 [15]	also measured
O=C(C=Cc1ccncc1F)c1ccc(N2CCNCC2)cc1 [Vf, 3-(3-Fluoropyridin-4-yl)-1-(4-(piperazin-1-yl)phenyl)prop-2-en-1-one]	78.75%	113.06%	79.28%	20.7%	99.19%	85.84%	14.2%	105.34%	95.53%	99.38%	0.62%	98.76%	102.52%	96.26%	101.29%	101.11%	1330 nM	225 °C	–	–	–
COc1cc(C=CC(=O)c2ccc(N3CCNCC3)cc2)ccc1F [Ve, 3-(4-Fluoro-3-methoxyphenyl)-1-(4-(piperazin-1-yl)phenyl) prop-2-en-1-one]	67.25%	68.11%	28.91%	71.1%	91.26%	12.37%	87.6%	60.47%	78.43%	34.68%	65.3%	94.50%	92.63%	73.01%	95.87%	79.33%	570 nM	–	arrest HCT-116 cell cycle in the G2/M phase; also recorded: induced cell arrest at G2/M phase	18.22%	%G2/M [15]: 46.85%; %S [15]: 28.58%; %G0/G1 [15]: 24.57%; total increase in apoptosis compared to the control [16]: ~21.2 fold; Apoptosis Early ([16]; 10 µM, 24 h): 4.76%; Necrosis ([16]; 10 µM, 24 h): 2.11%; Apoptosis Total ([16]; 10 µM, 24 h): 18.22%
Fc1cnccc1C1CC(c2ccc(N3CCNCC3)cc2)=NN1 (centres unmarked) [VIc, 1-(4-(5-(3-Fluoropyridin-4-yl)-4,5-dihydro-1H-pyrazol-3-yl)phenyl) piperazine]	76.20%	99.87%	77.32%	–	89.15%	77.92%	–	96.23%	95.86%	73.03%	–	84.58%	83.85%	89.29%	104.39%	85.78%	1310 nM	135 °C	–	–	–
O=C(C=Cc1cccc(F)c1)c1ccc(N2CCNCC2)cc1 [Vd, 3-(3-Fluorophenyl)-1-(4-(piperazin-1-yl)phenyl)prop-2-en-1-one]	76.84%	84.70%	60.38%	39.2%	79.41%	16.55%	83.5%	77.75%	81.16%	51.72%	48.3%	73.60%	77.30%	75.26%	94.49%	76.85%	800 nM	–	arrest HCT-116 cell cycle in the G2/M phase; also recorded: induced cell arrest at G2/M phase	16.54%	%G2/M [15]: 50.44%; %S [15]: 27.78%; %G0/G1 [15]: 21.78%; total increase in apoptosis compared to the control [16]: approximately 18.7 fold; Apoptosis Late ([16]; 10 µM, 24 h, control 0.25): 10.32%; Apoptosis Early ([16]; 10 µM, 24 h): 3.92%; Necrosis ([16]; 10 µM, 24 h): 2.3%; Apoptosis Total ([16]; 10 µM, 24 h): 16.54%
N#Cc1ccccc1C1CC(c2ccc(N3CCNCC3)cc2)=NN1 (centres unmarked) [VIa, 2-(3-(4-(Piperazin-1-yl)phenyl)-4,5-dihydro-1H-pyrazol-5-yl)benzonitrile]	78.06%	104.24%	81.63%	–	91.67%	78.12%	21.9%	97.48%	104.47%	93.05%	–	95.96%	91.73%	98.35%	105.04%	93.27%	1480 nM	165 °C	–	–	inhibition at 10 µM ([1]; Homo sapiens, read-out: cell growth inhibition): 21.9%
COc1cc(C2CC(c3ccc(N4CCNCC4)cc3)=NN2)ccc1F (centres unmarked) [VIb, 1-(4-(5-(4-Fluoro-3-methoxyphenyl)-4,5-dihydro-1H-pyrazol-3-yl)phenyl) piperazine]	68.21%	101.47%	76.95%	–	84.17%	58.92%	41.1%	93.81%	84.68%	68.65%	–	81.98%	75.49%	89.15%	84.21%	80.94%	1060 nM	195 °C	–	–	–

Source: publication PMC7758046, “Novel piperazine–chalcone hybrids and related pyrazoline analogues targeting VEGFR-2 kinase; design, synthesis, molecular docking studies, and anticancer evaluation” (Journal of Enzyme Inhibition and Medicinal Chemistry, 2020)
